The text below walks through data of patent US7255984B2, “Combination therapy for osteoporosis” (Pfizer Inc., priority 1996, dated 2007).

The subject of one data set is Ovariectomized Rats. The following applies: cited from earlier work.
For data set [1], the system named is Osteogenic Female Rat Skeleton. The conditions noted are these: risedronate administered after discontinuing PGE2; cited from earlier work.
Data set [2] deals with ovariectomized (OVX) rats, lumbar spine. The experiment in a line: Lumbar vertebral bone mineral measurements (DXA) in OVX rats, combination and sequential treatment. The data set is classed as in vivo, female Sprague-Dawley rats. The method, then:
One hundred and four female Sprague-Dawley rats (Charles River, Wilmington, Mass.) at 12 months of age were sham-operated or ovariectomized (OVX) at month 0. Three months post-surgery, OVX rats were treated with either Prostaglandin E2 (PGE2), a known anabolic bone agent, at 3 mg/kg/day (subcutaneously injection), or PGE2 at 3 mg/kg/day (subcutaneously injection) combined with droloxifene (DRO) at 10 mg/kg/day (orally) for 2 months. Thereafter, the PGE2 treatment was withdrawn and the rats were then treated with either vehicle (10% alcohol in saline) or DRO (10 mg/kg/day, orally) for another one and a half months as described in the following.
Group VIII: Eight OVX rats were subcutaneously injected with 3 mg/kg/day of PGE2 from months 3 to 5, and autopsied at month 5.
Group IX: Eight OVX rats were subcutaneously injected with 3 mg/kg/day of PGE2 from months 3 to 5, and vehicle from 5 to 6.5 months, and then autopsied at month 6.5.
Group X: Eight OVX rats were subcutaneously injected with 3 mg/kg/day of PGE2 from months 3 to 5, and 10 mg/kg/day of DRO orally from 5 to 6.5 months, and then autopsied at month 6.5.
Group XI: Eight OVX rats were subcutaneously injected with 3 mg/kg/day of PGE2 and 10 mg/kg/day of DRO orally from months 3 to 5, and then autopsied at month 5.
Group XII: Eight OVX rats were subcutaneously injected with 3 mg/kg/day of PGE2 and 10 mg/kg/day of DRO orally from months 3 to 5, and vehicle from months 5 to 6.5, then autopsied at month 6.5.
Group XIII: Eight OVX rats were subcutaneously injected with 3 mg/kg/day of PGE2 and 10 mg/kg/day of DRO orally from months 3 to 5, and DRO alone from months 5 to 6.5, then autopsied at month 6.5.
Both PGE2 (Cayman Chemical Co., Ann Arbor, Mich.) or droloxifene (Pfizer Inc. Groton, Conn.) powder was first dissolved in 100% ethanol and further diluted with saline into desired concentrations (final ethanol concentration was 10%). A PGE2 solution was daily injected subcutaneously on the back at 1 ml/kg. A droloxifene solution was given daily p.o. at 1 ml/rat.
Dual energy x-ray absorptiometry (QDR 1000/W, Hologic, Inc., Waltham, Mass.) equipped with a “Regional High Resolution Scan” software (Hologic, Inc., Waltham, Mass.) was used to determined the bone area, bone mineral content (BMC), and bone mineral density (BMD) of whole lumbar spine and each of the six lumbar vertebrae (LV1-6) in the anesthetized rats. The rats were anesthetized by injection (i.p.) of 1 ml/kg of a mixture of ketamine/rompun (ratio of 4 to 3), and then placed on the rat platform. The scan field sized was 6×1.9 cm, resolution was 0.0254×0.0127 cm, and scan speed was 7.25 mm/sec. The whole lumbar spine scan image was obtained and analyzed. Bone area (BA), and bone mineral content (BMC) were determined, and bone mineral density was calculated (MBC divided by BA) for the whole lumbar spine and each of the six lumbar vertebrae (LV1-6).

The mark [3] stands for this setting: OVX rats, PGE2 3 mg/kg/day months 3 to 5, then vehicle months 5 to 6.5.

Regarding `O=C(c1ccc(OCCN2CCCCC2)cc1)c1c(-c2ccc(O)cc2)sc2cc(O)ccc12` [raloxifene, 6hydroxy-2-(4-hydroxyphenyl)-3-[4-(2-piperidinoethoxy)benzoyl]benzo[b]thiophene], in the data set with Ovariectomized Rats (compared with estrogen), the “Action on bone and lipids” value was “mimics the favorable action of estrogen”. In addition, in the data set with Ovariectomized Rats (unlike estrogen), the Uterine stimulatory effect entry was “minimal”.

In the case of `O=P(O)(O)C(O)(Cc1cccnc1)P(=O)(O)O` [risedronate], the “Time for which most of the new cancellous and cortical bone induced by PGE2 is maintained after discontinuing PGE2” value in data set [1] is reported as “at least 60 days”.

As for `CCCCC[C@H](O)/C=C/[C@H]1[C@H](O)CC(=O)[C@@H]1C/C=C\CCCC(=O)O` [PGE2, Prostaglandin E2], in data set [2] (setting [3]), the “BMC of LV2 upon PGE2 cessation of treatment” value is recorded as “significant decrease”; the “BMD of LV1, LV2, and LV3 upon PGE2 cessation of treatment” value is recorded as “significant decrease”. For the same compound, in data set [2] (rats 3 months post-OVX, treated for 2 months (months 3 to 5), PGE2 3 mg/kg/day s.c., DRO 10 mg/kg/day orally), the “BMC and BMD of whole lumbar spine and lumbar vertebrae versus sham control levels” value is “completely restored”.

With `CC/C(=C(/c1ccc(OCCN(C)C)cc1)c1cccc(O)c1)c1ccccc1` [DRO, phenol, 3-[1-[4[2-(dimethylamino)ethoxy]phenyl]-2-phenyl-1-butenyl]-, (E)-], the “Effect of DRO on the anabolic effects of PGE2” value in data set [2] (OVX rats, DRO 10 mg/kg/day orally combined with PGE2 3 mg/kg/day s.c. for 2 months) was “did not blunt”. For the same compound, in data set [2] (OVX rats, PGE2 months 3 to 5, then DRO 10 mg/kg/day orally months 5 to 6.5), the “Maintenance of PGE2-restored bone after discontinuation of PGE2” value is “completely maintained”. Besides, the “Bone loss in the lumbar spine when PGE2 was withdrawn and DRO continued for another 1.5 months” value in data set [2] (OVX rats, PGE2 plus DRO months 3 to 5, then DRO alone 10 mg/kg/day months 5 to 6.5) is “no bone loss”.
